For one experiment, the system named is Escherichia coli. Nature of the experiment: Antibacterial activity against Escherichia coli ATCC 25922 by CLSI based microplate assay. In kind it is functional.
The next experiment has as its system Acinetobacter baumannii. Nature of the experiment: Antibacterial activity against Acinetobacter baumannii ATCC 19606 by CLSI based microplate assay. Conditions: ATCC 19606 = CIP 70.34 = JCM 6841. The format is functional.
Another experiment relates to Klebsiella pneumoniae. Nature of the experiment: Antibacterial activity against Klebsiella pneumoniae ATCC 700603 by CLSI based microplate assay. The format is functional.
Another experiment concerns Pseudomonas aeruginosa. The experiment is described as follows: Antibacterial activity against Pseudomonas aeruginosa ATCC 15692 by CLSI based microplate assay. The format is functional.
Experiment [1] deals with Mycobacterium tuberculosis. Nature of the experiment: Antitubercular activity against Mycobacterium tuberculosis H37Ra ATCC 25177 assessed as reduction in bacterial growth after 6 to 8 days by green fluorescent protein microplate assay. The format is functional. The settings on record: time 6-8 day.
The next experiment relates to NCI-H187. The experiment is described as follows: cells. The settings on record: Homo sapiens.
The subject of a further experiment is Bacillus cereus. Nature of the experiment: Antibacterial activity against Bacillus cereus ATCC 11778 by resazurin microplate assay. In kind it is functional. In general terms: The colour change of resazurin is a common sign of viable cells or microbes.
The subject of the next experiment is Plasmodium falciparum. Nature of the experiment: Antimalarial activity against multi drug-resistant Plasmodium falciparum K1 infected in human erythrocytes assessed as inhibition of [G-3H]hypoxanthine uptake preincubated for 24 hrs followed by [G-3H]hypoxanthine addition and measured after 18 hrs by scintillation counting method. In kind it is functional, organism-based.

A further experiment concerns Enterococcus faecium. The experiment is described as follows: Antibacterial activity against Enterococcus faecium ATCC 51559 by CLSI based microplate assay. The format is functional.
The subject of the next experiment is MCF7. The experiment is described as follows: cells. Conditions: Homo sapiens.
The next experiment concerns Vero. The experiment is described as follows: Cytotoxicity against African green monkey Vero cells by green fluorescent protein microplate assay. In kind it is cell-based. The settings on record: Chlorocebus sabaeus.
The subject of a further experiment is Candida albicans. Nature of the experiment: Antifungal activity against Candida albicans ATCC 90028 by resazurin microplate assay. In kind it is functional.
The subject of another experiment is KB. Nature of the experiment: cells. Conditions: Homo sapiens.

Molecules are shown by their SMILES. Values after ≈ are worked out from the molar mass of the structure shown. Active and inactive are the calls of the source. The calls are words filed in the database; no cut-off is given here.

Description for KB: Cytotoxicity against human KB cells assessed as reduction in cell viability by resazurin based fluorescence assay
Description for MCF7: Cytotoxicity against human MCF7 cells assessed as reduction in cell viability by resazurin based fluorescence assay
Description for NCI-H187: Cytotoxicity against human NCI-H187 cells assessed as reduction in cell viability by resazurin based fluorescence assay

`CC[C@H]1OC(=O)[C@H](C)[C@@H](O[C@H]2C[C@@](C)(OC)[C@@H](O)[C@H](C)O2)[C@H](C)[C@@H](O[C@@H]2O[C@H](C)C[C@H](N(C)C)[C@H]2O)[C@](C)(O)C[C@@H](C)C(=O)[C@H](C)[C@@H](O)[C@]1(C)O` [ERYTHROMYCIN]: the MIC worked out at 25 µg/mL (≈ 34.1 µM) against Escherichia coli, 12.5 µg/mL (≈ 17 µM) with Acinetobacter baumannii, 200 µg/mL (≈ 273 µM) against Klebsiella pneumoniae and 32 µg/mL (≈ 43.6 µM) in the experiment with Pseudomonas aeruginosa.
Regarding `CO[C@H]1CC=C2C(=O)c3c(cc(C)c(-c4c(C)cc5c(c4O)C(=O)C4=CC[C@H](OC)[C@@H](O)[C@]4(C)O5)c3O)O[C@@]2(C)[C@@H]1O` [ASCHERXANTHONE A], the result with Escherichia coli, in the experiment on Acinetobacter baumannii, with Bacillus cereus, in the experiment with Klebsiella pneumoniae, with Pseudomonas aeruginosa and in the experiment with Candida albicans was inactive. Also, the MIC in [1] is 6.3 µg/mL (≈ 10.9 µM); with Enterococcus faecium it was more than 50 µg/mL. Besides, the IC50 in the experiment with NCI-H187 turned out to be 500 nM; in the experiment with Plasmodium falciparum, 1000 nM; in the experiment with MCF7 it was 16800 nM; with Vero, 900 nM; in the experiment with KB, 3200 nM.
Consider `O=C(N[C@H](CO)[C@H](O)c1ccc([N+](=O)[O-])cc1)C(Cl)Cl` [CHLORAMPHENICOL], for which the MIC against Pseudomonas aeruginosa was 8 µg/mL (≈ 24.8 µM).
Turning to `CO[C@H]1[C@H](O)C=C2C(=O)c3c(cc(C)c(-c4c(C)cc5c(c4O)C(=O)C4=CC[C@H](OC)[C@@H](O)[C@]4(C)O5)c3O)O[C@@]2(C)[C@@H]1O`, the outcome in the experiment on Escherichia coli, in the experiment with Acinetobacter baumannii, in the experiment on Bacillus cereus, in the experiment on Klebsiella pneumoniae, with Pseudomonas aeruginosa and with Candida albicans was inactive. The values for the MIC (in experiment [1]; with Enterococcus faecium) were 6.3 µg/mL (≈ 10.6 µM) and more than 50 µg/mL, respectively. The IC50 with NCI-H187 was 1000 nM; with Plasmodium falciparum, 600 nM; in the experiment on MCF7, 12800 nM; in the experiment with Vero, 1200 nM; in the experiment with KB it was 1300 nM.
Turning to `CO[C@H]1/C=C/O[C@@]2(C)Oc3c(C)c(O)c4c(O)c(c(/C=N/N5CCN(C)CC5)c(O)c4c3C2=O)NC(=O)/C(C)=C\C=C\[C@H](C)[C@H](O)[C@@H](C)[C@@H](O)[C@@H](C)[C@H](OC(C)=O)[C@@H]1C` [RIFAMPIN], the MIC was determined as 6.3 µg/mL (≈ 7.66 µM) against Escherichia coli, 3.1 µg/mL (≈ 3.77 µM) in the experiment on Acinetobacter baumannii, 25 µg/mL (≈ 30.4 µM) in the experiment on Klebsiella pneumoniae and 3.1 µg/mL (≈ 3.77 µM) with Enterococcus faecium.
On to `CC1COc2c(N3CCN(C)CC3)c(F)cc3c(=O)c(C(=O)O)cn1c23` (configuration not stated) [OFLOXACIN], for which the MIC in experiment [1] was found to be 0.4 µg/mL (≈ 1.11 µM).
Take `CO[C@H]1CC=C2C(=O)c3c(O)cc(C)c(-c4c(C)cc(O)c5c4O[C@]4(C)C(=CC(=O)[C@H](OC)[C@H]4O)C5=O)c3O[C@@]2(C)[C@@H]1O`: the outcome with Escherichia coli, with Acinetobacter baumannii, in the experiment on Bacillus cereus, in the experiment on Klebsiella pneumoniae, in the experiment with Pseudomonas aeruginosa and with Candida albicans was inactive. Also, the results for the MIC (in [1]; against Enterococcus faecium) were 12.5 µg/mL (≈ 21.1 µM) and more than 50 µg/mL, respectively. The IC50 was found to be 1700 nM in the experiment with NCI-H187; 6100 nM with Plasmodium falciparum; 25500 nM with MCF7; 4200 nM in the experiment with Vero; 4900 nM in the experiment with KB.
As to `CC[C@@H](CO)NCCN[C@@H](CC)CO` [ETHAMBUTOL], the MIC in [1] came to 0.9 µg/mL (≈ 4.4 µM).
In the case of `C[C@@H]1[C@H](O)[C@@H](C)/C=C/C=C/C=C/C=C/C=C/C=C/C=C/[C@H](O[C@@H]2O[C@H](C)[C@@H](O)[C@H](N)[C@@H]2O)C[C@@H]2O[C@](O)(C[C@@H](O)C[C@@H](O)[C@H](O)CC[C@@H](O)C[C@@H](O)CC(=O)O[C@H]1C)C[C@H](O)[C@H]2C(=O)O` [AMPHOTERICIN B], in the experiment with Candida albicans, the MIC is 0.1 µg/mL (≈ 0.108 µM).
For `CO[C@H]1CC=C2C(=O)c3c(cc(C)c(-c4c(C)cc5c(c4O)C(=O)C4=CC[C@H](OC)[C@H](O)[C@]4(C)O5)c3O)O[C@@]2(C)[C@@H]1O`, the result with Escherichia coli, with Acinetobacter baumannii, with Bacillus cereus, in the experiment on Klebsiella pneumoniae, with Pseudomonas aeruginosa and with Candida albicans was inactive. The results for the MIC (in experiment [1]; in the experiment with Enterococcus faecium) were 25 µg/mL (≈ 43.2 µM) and 12.5 µg/mL (≈ 21.6 µM), respectively. Also, the IC50 in the experiment on NCI-H187 is 1200 nM; in the experiment with Plasmodium falciparum, 1000 nM; in the experiment on MCF7, more than 86400 nM; with Vero, 2400 nM; in the experiment with KB it was 3400 nM.
For `Cc1c2ccncc2c(C)c2c1[nH]c1ccccc12` [ELLIPTECINE], the IC50 in the experiment with NCI-H187 amounted to 9100 nM; in the experiment with Vero, 7900 nM; in the experiment with KB, 6100 nM.
`CO[C@H]1CC=C2C(=O)c3c(cc(C)c(-c4c(C)cc5c(c4O)C(=O)C4=CC[C@H](OC)[C@H](OC(C)=O)[C@]4(C)O5)c3O)O[C@@]2(C)[C@@H]1O`: the result with Escherichia coli, in the experiment on Acinetobacter baumannii, in the experiment with Bacillus cereus, with Klebsiella pneumoniae, in the experiment on Pseudomonas aeruginosa and in the experiment with Candida albicans was inactive. Also, the MIC in experiment [1] was found to be 6.3 µg/mL (≈ 10.2 µM); against Enterococcus faecium it was 12.5 µg/mL (≈ 20.1 µM). The IC50 amounted to 1000 nM with NCI-H187; 1400 nM in the experiment on Plasmodium falciparum; 7200 nM in the experiment on MCF7; 900 nM in the experiment on Vero; 1500 nM with KB.
For the compound `CO[C@H]1CC=C2C(=O)c3c(O)cc(C)c(-c4c(C)cc(O)c5c4O[C@]4(C)C(=CC[C@H](OC)[C@@H]4O)C5=O)c3O[C@@]2(C)[C@@H]1O`, the outcome with Escherichia coli, in the experiment on Acinetobacter baumannii, in the experiment with Bacillus cereus, in the experiment with Klebsiella pneumoniae, in the experiment on Pseudomonas aeruginosa and in the experiment on Candida albicans was inactive. Moreover, the MIC in [1] is 6.3 µg/mL (≈ 10.9 µM); in the experiment on Enterococcus faecium it was more than 50 µg/mL. Further, the IC50 in the experiment on NCI-H187 was 2800 nM; in the experiment with Plasmodium falciparum, 2600 nM; with MCF7, 27900 nM; with Vero it was 4200 nM; in the experiment on KB, 4700 nM.
As for `NNC(=O)c1ccncc1` [ISONIAZID], the MIC in [1] came to 0.1 µg/mL (≈ 0.729 µM).
For the compound `CO[C@H]1[C@H](O)C=C2C(=O)c3c(O)cc(C)c(-c4c(C)cc(O)c5c4O[C@]4(C)C(=CC[C@H](OC)[C@H]4O)C5=O)c3O[C@@]2(C)[C@@H]1O`, the outcome in the experiment with Escherichia coli, with Acinetobacter baumannii, in the experiment with Bacillus cereus, in the experiment on Klebsiella pneumoniae, in the experiment on Pseudomonas aeruginosa and in the experiment with Candida albicans was inactive. Besides, the figures for the MIC (in [1]; against Enterococcus faecium) were 25 µg/mL (≈ 42 µM) and more than 50 µg/mL, respectively. Moreover, the IC50 in the experiment on NCI-H187 amounted to 1000 nM; in the experiment with Plasmodium falciparum, 1700 nM; in the experiment on MCF7, 63200 nM; with Vero, 2200 nM; with KB, 63500 nM.
Consider `CN[C@@H]1[C@H](O[C@H]2[C@H](O[C@H]3[C@H](O)[C@@H](O)[C@H](N=C(N)N)[C@@H](O)[C@@H]3N=C(N)N)O[C@@H](C)[C@]2(O)C=O)O[C@@H](CO)[C@H](O)[C@H]1O` [STREPTOMYCIN], for which the MIC in experiment [1] turned out to be 0.3 µg/mL (≈ 0.516 µM).
Take `O[C@@H](c1cc(C(F)(F)F)nc2c(C(F)(F)F)cccc12)[C@H]1CCCCN1` [(S,R)-MEFLOQUINE]: the IC50 in the experiment on Plasmodium falciparum is 70 nM.
Consider `COC1=C[C@]2(C)Oc3c(c(O)cc(C)c3-c3c(C)cc(O)c4c3O[C@]3(C)C(=CC[C@H](OC)[C@H]3O)C4=O)C(=O)[C@@H]2CC1=O`, for which the result in the experiment on Escherichia coli, with Acinetobacter baumannii, in the experiment with Bacillus cereus, in the experiment on Klebsiella pneumoniae, with Pseudomonas aeruginosa and in the experiment on Candida albicans was inactive. In addition, the minimum inhibitory concentration (MIC) is 12.5 µg/mL (≈ 21.7 µM) in experiment [1] and more than 50 µg/mL against Enterococcus faecium. Besides, the IC50 with NCI-H187 came out at 3500 nM; in the experiment on Plasmodium falciparum, 4800 nM; with MCF7, 17600 nM; with Vero, 6100 nM; in the experiment with KB, 9700 nM.
For `CN[C@H](CC(C)C)C(=O)N[C@H]1C(=O)N[C@@H](CC(N)=O)C(=O)N[C@H]2C(=O)N[C@H]3C(=O)N[C@H](C(=O)N[C@H](C(=O)O)c4cc(O)cc(O)c4-c4cc3ccc4O)[C@H](O)c3ccc(c(Cl)c3)Oc3cc2cc(c3O[C@@H]2O[C@H](CO)[C@@H](O)[C@H](O)[C@H]2O[C@H]2C[C@](C)(N)[C@H](O)[C@H](C)O2)Oc2ccc(cc2Cl)[C@H]1O` [VANCOMYCIN], the MIC in the experiment on Bacillus cereus was determined as 2 µg/mL (≈ 1.38 µM).
For the compound `CO[C@H]1CC=C2C(=O)c3c(O)cc(C)c(-c4c(C)cc(O)c5c4O[C@]4(C)C(=CC[C@H](OC)[C@H]4O)C5=O)c3O[C@@]2(C)[C@@H]1O`, the outcome with Escherichia coli, in the experiment on Acinetobacter baumannii, with Bacillus cereus, in the experiment on Klebsiella pneumoniae, in the experiment with Pseudomonas aeruginosa and with Candida albicans was inactive. The MIC in experiment [1] was 6.3 µg/mL (≈ 10.9 µM); with Enterococcus faecium, more than 50 µg/mL. The IC50 in the experiment with NCI-H187 came out at 800 nM; with Plasmodium falciparum it was 900 nM; in the experiment with MCF7, 7500 nM; in the experiment on Vero, 1100 nM; in the experiment with KB, 1500 nM.
With `CC/C(=C(\c1ccccc1)c1ccc(OCCN(C)C)cc1)c1ccccc1` [TAMOXIFEN], in the experiment on MCF7, half-maximal inhibition (IC50) was put at 19200 nM.

Usually MIC stands for the lowest concentration that inhibits growth of the organism. In general, IC50 refers to the concentration that gives 50% inhibition.
